Here are results for ten molecules from ChEMBL document CHEMBL4152288, “Medicinal Chemistry and Use of Myosin II Inhibitor ( S)-Blebbistatin and Its Derivatives” (J Med Chem, 2018).

In brackets after ≈: the same amount, converted by molar mass. Bounds are passed on as bounds.

For series [1], the species on record is Oryctolagus cuniculus. As to the kind of experiment: Inhibition of rabbit skeletal myosin 2 ATPase activity at 5 uM relative to control.
The species entered for series [2] is Oryctolagus cuniculus. As to the kind of experiment: Inhibition of rabbit skeletal myosin 2 ATPase activity at 50 uM relative to control.
The target of series [3] is Myosin-2 heavy chain (Dictyostelium discoideum) (UniProt P08799). As to the kind of experiment: Inhibition of Dictyostelium discoideum myosin 2 ATPase activity at 50 uM relative to control.
Chain of Myosin-2 heavy chain (Dictyostelium discoideum) (P08799 whole entry): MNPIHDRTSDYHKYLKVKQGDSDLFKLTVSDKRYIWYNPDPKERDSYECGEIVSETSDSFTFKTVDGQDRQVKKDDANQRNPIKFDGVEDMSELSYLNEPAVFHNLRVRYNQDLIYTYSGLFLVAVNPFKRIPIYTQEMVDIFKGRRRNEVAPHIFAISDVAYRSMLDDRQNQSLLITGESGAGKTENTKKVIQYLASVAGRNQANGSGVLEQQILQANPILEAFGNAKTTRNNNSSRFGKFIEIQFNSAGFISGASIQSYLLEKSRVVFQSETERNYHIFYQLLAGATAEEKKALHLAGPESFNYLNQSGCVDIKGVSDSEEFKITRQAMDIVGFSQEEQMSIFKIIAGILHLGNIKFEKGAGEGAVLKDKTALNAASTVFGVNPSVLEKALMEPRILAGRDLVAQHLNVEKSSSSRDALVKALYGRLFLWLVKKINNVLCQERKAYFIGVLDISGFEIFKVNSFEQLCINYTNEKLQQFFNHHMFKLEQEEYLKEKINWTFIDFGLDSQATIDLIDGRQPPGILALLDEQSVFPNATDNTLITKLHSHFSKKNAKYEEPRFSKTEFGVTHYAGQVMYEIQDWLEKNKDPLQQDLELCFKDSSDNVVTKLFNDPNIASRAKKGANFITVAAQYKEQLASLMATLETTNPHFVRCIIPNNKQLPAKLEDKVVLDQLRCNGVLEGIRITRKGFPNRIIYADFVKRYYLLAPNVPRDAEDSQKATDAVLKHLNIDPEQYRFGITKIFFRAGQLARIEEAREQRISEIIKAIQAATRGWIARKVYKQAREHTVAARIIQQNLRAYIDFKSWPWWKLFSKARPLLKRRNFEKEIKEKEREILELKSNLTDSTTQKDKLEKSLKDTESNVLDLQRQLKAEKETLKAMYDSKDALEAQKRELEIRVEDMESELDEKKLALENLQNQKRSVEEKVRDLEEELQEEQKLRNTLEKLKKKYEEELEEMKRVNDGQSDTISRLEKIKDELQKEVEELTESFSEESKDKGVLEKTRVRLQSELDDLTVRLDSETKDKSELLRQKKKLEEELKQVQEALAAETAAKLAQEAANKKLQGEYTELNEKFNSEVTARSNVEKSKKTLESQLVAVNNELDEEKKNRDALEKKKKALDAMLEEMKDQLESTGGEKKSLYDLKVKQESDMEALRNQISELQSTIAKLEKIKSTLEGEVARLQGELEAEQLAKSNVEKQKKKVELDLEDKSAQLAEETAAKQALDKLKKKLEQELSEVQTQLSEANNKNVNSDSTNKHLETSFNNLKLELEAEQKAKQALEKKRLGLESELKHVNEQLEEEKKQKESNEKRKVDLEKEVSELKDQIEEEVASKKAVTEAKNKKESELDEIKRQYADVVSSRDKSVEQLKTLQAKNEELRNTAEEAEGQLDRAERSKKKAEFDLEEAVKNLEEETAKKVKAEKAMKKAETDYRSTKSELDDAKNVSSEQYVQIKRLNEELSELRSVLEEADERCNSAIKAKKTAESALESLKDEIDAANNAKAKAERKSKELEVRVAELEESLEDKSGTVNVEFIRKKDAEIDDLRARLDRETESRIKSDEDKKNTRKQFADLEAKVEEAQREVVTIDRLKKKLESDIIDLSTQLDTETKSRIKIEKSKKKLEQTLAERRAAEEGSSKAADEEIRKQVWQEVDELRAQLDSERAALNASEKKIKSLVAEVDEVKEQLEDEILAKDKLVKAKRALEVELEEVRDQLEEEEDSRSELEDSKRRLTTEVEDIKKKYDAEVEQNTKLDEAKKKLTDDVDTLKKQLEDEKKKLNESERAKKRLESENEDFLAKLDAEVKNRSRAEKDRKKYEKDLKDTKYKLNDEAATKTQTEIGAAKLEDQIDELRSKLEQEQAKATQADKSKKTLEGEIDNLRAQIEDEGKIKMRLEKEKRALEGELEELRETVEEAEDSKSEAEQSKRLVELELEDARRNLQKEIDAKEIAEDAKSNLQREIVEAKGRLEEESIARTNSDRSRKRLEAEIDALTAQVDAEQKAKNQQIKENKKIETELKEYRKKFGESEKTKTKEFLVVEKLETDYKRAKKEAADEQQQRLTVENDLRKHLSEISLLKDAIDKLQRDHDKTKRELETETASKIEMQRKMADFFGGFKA
Series [4] has as its target T1, Myosin-2 heavy chain (Dictyostelium discoideum, UniProt P08799). As to the kind of experiment: Inhibition of Dictyostelium discoideum myosin 2 ATPase activity.
Series [5] deals with T1, Myosin-2 heavy chain. As to the kind of experiment: Inhibition of Dictyostelium discoideum myosin 2 ATPase activity by NADH-coupled assay.
The next series has as its target Myosin-4 (Oryctolagus cuniculus, UniProt Q28641). As to the kind of experiment: Inhibition of rabbit skeletal muscle myosin 2.
Series [6] can be described thus: Inhibition of human myosin 2a ATPase activity.
The target of a further series is Myosin IC heavy chain (Acanthamoeba castellanii, UniProt P10569). As to the kind of experiment: Inhibition of dephosphorylated Acanthamoeba […] myosin 1c by NADH-coupled spectrophotometric analysis.
Another series has as its target Unconventional myosin-Va (Mus musculus, UniProt Q99104). As to the kind of experiment: Inhibition of mouse myosin 5a by NADH-coupled spectrophotometric analysis.
A further series has as its target Unconventional myosin-Ib (Rattus norvegicus, UniProt Q05096). As to the kind of experiment: Inhibition of rat myosin 1b by NADH-coupled spectrophotometric analysis.
For another series, the target named is Myosin-7 (Sus scrofa, UniProt P79293). As to the kind of experiment: Inhibition of pig beta cardiac myosin 2 by NADH-coupled spectrophotometric analysis.
In a further series the target is Myosin-10 (Homo sapiens, UniProt P35580). As to the kind of experiment: Inhibition of human non-muscle myosin 2b.
In series [7] the target is Myosin heavy chain, non-muscle (Drosophila melanogaster, UniProt Q99323). As to the kind of experiment: Inhibition of fruit fly non-muscle myosin 2.
The target of series [8] is Nonmuscle myosin heavy chain (Gallus gallus, UniProt Q789A4). As to the kind of experiment: Inhibition of chicken non-muscle myosin 2b by NADH-coupled spectrophotometric analysis.
A short description of series [9]: Inhibition of chicken smooth muscle myosin 2 ATPase activity preincubated for 60 mins followed by ATP addition measured after 10 mins by malachite green based assay.
The nature of series [10]: Inhibition of Meleagris gallopavo smooth muscle myosin 2 ATPase activity.
For a further series, the target named is Unconventional myosin-X (Bos taurus, UniProt P79114). As to the kind of experiment: Inhibition of bovine myosin x by NADH-coupled spectrophotometric analysis.
A further series has as its target Myosin-14 (Mus musculus, UniProt Q6URW6). As to the kind of experiment: Inhibition of mouse non-muscle myosin 2c.
For a further series, the target named is Unconventional myosin-XV (Homo sapiens, UniProt Q9UKN7). As to the kind of experiment: Inhibition of human myosin 15 by NADH-coupled spectrophotometric analysis.
A short description of series [11]: Inhibition of bay scallop striated muscle myosin heavy chain.
Series [12] is described as follows: Inhibition of Bos taurus smooth muscle myosin 2 ATPase activity.
For series [13], the target named is Myosin-2 heavy chain, non muscle (Acanthamoeba castellanii, UniProt P05659). As to the kind of experiment: Inhibition of dephosphorylated Acanthamoeba non muscle myosin 2 by NADH-coupled spectrophotometric analysis.
The target in another series is Myosin-9 (Homo sapiens, UniProt P35579). As to the kind of experiment: Inhibition of human non-muscle myosin 2a.
The test system of a further series is BXPC-3. As to the kind of experiment: Cytotoxicity against human BxPC3 cells assessed as cell death at 400 uM after 24 hrs. It is filed as functional.
Series [14] in a line: Cytotoxicity against human Fem-X cells assessed as cell death at 200 uM after 24 hrs relative to control. The format is functional.
The subject of series [15] is DU-145. As to the kind of experiment: Cytotoxicity against human DU145 cells assessed as cell death at 200 uM after 3 hrs relative to control. The format is functional.
Series [16] is described as follows: Cytotoxicity against F11-hTERT cells (unknown origin) assessed as cell death at 200 uM after 24 hrs relative to control. It is filed as functional.
Another series concerns MIA PaCa-2. As to the kind of experiment: Cytotoxicity against human MIAPaCa2 cells assessed as cell death at 400 uM after 24 hrs. It is filed as functional.
The next series deals with Capan-2. As to the kind of experiment: Cytotoxicity against human Capan2 cells assessed as cell death at 400 uM after 24 hrs. The format is functional.
Series [17] is described as follows: Steady state aqueous solubility of the compound in 0.1 % DMSO buffer at 25 degC. It is filed as physicochemical. Particulars: aqueous buffer with 0.1% DMSO.
The nature of series [18]: Toxicity in zebrafish embryo assessed as mortality at 10 uM in presence 0.4 uJ/cm2 of irradiation measured after 36 hrs relative to control. Particulars: zebrafish embryos, read-out: Activity. It is filed as organism-based, Danio rerio.
The nature of series [19]: Cytotoxicity against human Fem-X cells assessed as cell death at 200 uM after 3 hrs relative to control. The format is functional.
The next series has as its system PANC-1. As to the kind of experiment: Cytotoxicity against human PANC1 cells assessed as cell death at 400 uM after 24 hrs. It is filed as functional.
Series [20] is described as follows: Toxicity in Dictyostelium discoideum assessed as mortality at 20 uM after 3 days relative to control. The format is organism-based. Particulars: Dictyostelium discoideum cells, read-out: Activity.
Series [21] concerns LNCaP. As to the kind of experiment: Cytotoxicity against human LNCAP cells assessed as cell death at 200 uM after 3 hrs relative to control. The format is functional.
Series [22] relates to U-87 MG. As to the kind of experiment: Cytotoxicity against human U87 cells assessed as cell death at 200 uM after 24 hrs relative to control. It is filed as functional, U-87MG ATCC.
Series [23] in a line: Cytotoxicity against F11-hTERT cells (unknown origin) assessed as cell death at 200 uM after 3 hrs relative to control. The format is functional.
Series [24] in a line: Steady state aqueous solubility of the compound in 10 % DMSO buffer up to 240 mins. The format is physicochemical. The conditions noted are these: 4 h.
Series [25] concerns U-87 MG. As to the kind of experiment: Cytotoxicity against human U87 cells assessed as cell death at 200 uM after 3 hrs relative to control. It is filed as functional, U-87MG ATCC.
Series [26] deals with LNCaP. As to the kind of experiment: Cytotoxicity against human LNCAP cells assessed as cell death at 200 uM after 24 hrs relative to control. The format is functional.
The next series concerns HeLa. As to the kind of experiment: Cytotoxicity against human HeLa cells assessed as cell death at 20 uM measured after 3 days by trypan blue based light microscopy relative to control.
For series [27], the system named is DU-145. As to the kind of experiment: Cytotoxicity against human DU145 cells assessed as cell death at 200 uM after 24 hrs relative to control. It is filed as functional.

T1 sequence (P08799 whole entry): as above
Chain of Myosin-4 (Q28641 whole entry): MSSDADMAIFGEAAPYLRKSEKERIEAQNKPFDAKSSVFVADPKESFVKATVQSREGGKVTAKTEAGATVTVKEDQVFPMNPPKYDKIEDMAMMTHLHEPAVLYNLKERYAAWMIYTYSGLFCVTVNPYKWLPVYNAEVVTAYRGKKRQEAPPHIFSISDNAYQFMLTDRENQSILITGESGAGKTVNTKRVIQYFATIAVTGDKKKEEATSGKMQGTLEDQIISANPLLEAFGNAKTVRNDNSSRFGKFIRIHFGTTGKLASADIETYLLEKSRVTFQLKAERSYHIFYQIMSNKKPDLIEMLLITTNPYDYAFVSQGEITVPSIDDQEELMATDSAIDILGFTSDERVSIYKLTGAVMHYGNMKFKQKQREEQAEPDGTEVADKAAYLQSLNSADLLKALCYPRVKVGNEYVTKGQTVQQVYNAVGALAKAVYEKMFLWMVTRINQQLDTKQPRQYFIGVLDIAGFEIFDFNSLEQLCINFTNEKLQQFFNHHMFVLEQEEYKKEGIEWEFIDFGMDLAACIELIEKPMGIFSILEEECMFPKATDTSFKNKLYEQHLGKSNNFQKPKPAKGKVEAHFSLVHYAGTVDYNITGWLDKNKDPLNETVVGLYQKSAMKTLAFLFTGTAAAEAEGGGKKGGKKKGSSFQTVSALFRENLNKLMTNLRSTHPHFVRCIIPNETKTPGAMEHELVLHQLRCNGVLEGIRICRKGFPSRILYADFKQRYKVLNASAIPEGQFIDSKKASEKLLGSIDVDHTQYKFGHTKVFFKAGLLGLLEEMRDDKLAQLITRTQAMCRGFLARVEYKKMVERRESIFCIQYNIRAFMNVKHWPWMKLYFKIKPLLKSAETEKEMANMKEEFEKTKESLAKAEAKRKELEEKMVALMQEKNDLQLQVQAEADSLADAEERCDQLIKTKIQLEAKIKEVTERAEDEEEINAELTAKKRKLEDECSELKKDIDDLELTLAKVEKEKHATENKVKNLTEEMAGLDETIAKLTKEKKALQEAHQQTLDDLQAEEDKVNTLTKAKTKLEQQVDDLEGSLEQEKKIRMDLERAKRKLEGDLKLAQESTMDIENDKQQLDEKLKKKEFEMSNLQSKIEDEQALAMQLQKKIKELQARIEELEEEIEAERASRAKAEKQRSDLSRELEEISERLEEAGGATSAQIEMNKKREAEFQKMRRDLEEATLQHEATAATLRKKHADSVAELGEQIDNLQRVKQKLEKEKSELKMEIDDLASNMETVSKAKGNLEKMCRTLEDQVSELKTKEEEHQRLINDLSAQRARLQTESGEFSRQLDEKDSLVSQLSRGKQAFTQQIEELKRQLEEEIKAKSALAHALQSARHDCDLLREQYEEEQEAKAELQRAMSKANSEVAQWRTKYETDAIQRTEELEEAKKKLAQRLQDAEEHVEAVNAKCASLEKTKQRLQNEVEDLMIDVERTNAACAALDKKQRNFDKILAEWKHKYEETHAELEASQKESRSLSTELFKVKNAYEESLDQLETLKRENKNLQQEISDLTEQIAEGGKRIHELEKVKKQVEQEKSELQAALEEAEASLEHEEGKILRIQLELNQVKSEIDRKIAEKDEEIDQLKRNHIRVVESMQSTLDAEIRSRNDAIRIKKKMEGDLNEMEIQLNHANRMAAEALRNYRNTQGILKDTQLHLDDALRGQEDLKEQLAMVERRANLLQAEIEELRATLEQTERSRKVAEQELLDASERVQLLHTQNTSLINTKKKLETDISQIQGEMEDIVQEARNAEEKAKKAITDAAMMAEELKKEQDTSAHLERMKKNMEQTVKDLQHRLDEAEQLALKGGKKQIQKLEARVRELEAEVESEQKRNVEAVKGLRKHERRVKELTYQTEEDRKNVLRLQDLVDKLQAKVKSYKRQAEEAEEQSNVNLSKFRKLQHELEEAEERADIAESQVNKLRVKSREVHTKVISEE

A word on the inhibition: it is the share of the control response that was lost under treatment. Lower therefore signals little suppression. Regarding `Cc1ccc2c(c1)N=C1N(c3ccccc3)CC[C@@]1(O)C2=O`, the inhibition came to 86% in the series listed under Oryctolagus cuniculus [1], 94% in the series filed under Oryctolagus cuniculus [2] and 90% in [3].

Usually IC50 stands for the concentration that inhibits the measured activity by half. Higher therefore signals a need for much substance. On to `Cc1ccc2c(c1)C(=O)[C@]1(O)CCN(c3ccc(Cl)cc3)C1=N2`, for which the IC50 on Myosin-2 heavy chain [4] is 1.9 µM.

`Cc1cccc2c1N=C1N(c3ccccc3)CC[C@@]1(O)C2=O`: the inhibition in the series filed under Oryctolagus cuniculus [1] is 31%; in the series filed under Oryctolagus cuniculus [2], 72%; in [3], 35%.

At Myosin-2 heavy chain [5], `Cc1ccc2c(c1)C(=O)[C@]1(O)CCN(c3ccc(N=[N+]=[N-])cc3)C1=N2` came in with an IC50 of 5.2 µM.

In the case of `Cc1ccc2c(c1)C(=O)[C@]1(O)CCN(c3ccc([N+](=O)[O-])cc3)C1=N2`, the IC50 at Myosin-2 heavy chain [5] came to 2.3 µM; against Myosin-4, 0.4 µM.

In series [6], `O=C1c2ccc([N+](=O)[O-])cc2N=C2N(c3ccccc3)CC[C@@]12O` displayed an IC50 of 28 µM.

Turning to `Cc1cccc2c1C(=O)[C@]1(O)CCN(c3ccccc3)C1=N2`, the inhibition in the series filed under Oryctolagus cuniculus [1] was 86%; in the series listed under Oryctolagus cuniculus [2], 95%; in series [3], 88%.

With `Cc1ccc2c(c1)C(=O)C1(O)CCN(c3ccccc3)C1=N2` (racemic), the concentration for half-maximal inhibition (IC50) is greater than 150 µM at Myosin IC heavy chain; greater than 150 µM against Unconventional myosin-Va; greater than 150 µM against Unconventional myosin-Ib; 1.2 µM at Myosin-7; 4.6 µM against Myosin-10; greater than 200 µM in series [7]. The half-inhibitory concentration (IC50) in [8] was 1.8 µM; in series [9] it was 5.5 to 23.5 µM; in [10], 80 µM; at Unconventional myosin-X, greater than 150 µM; against Myosin-4, 0.22 to 4.32 µM; at Myosin-14 it was 3.2 µM. Moreover, the IC50 against Unconventional myosin-XV is greater than 100 µM; in [11], 2.3 µM; in series [12], 4.3 to 11 µM; in series [13], 83 µM; against Myosin-9, 4 to 14 µM.

Take `O=C1c2ccccc2N=C2N(c3ccccc3)CC[C@@]12O`: the results for the inhibition (in the series listed under Oryctolagus cuniculus [1]; in the series filed under Oryctolagus cuniculus [2]; in series [3]) were 84%, 95% and 88%, respectively.

The solubility is the dissolved amount per volume that the medium holds. High values mean a readily soluble substance, low ones a poorly soluble substance. `Cc1ccc2c(c1)C(=O)[C@]1(O)CCN(c3ccccc3)C1=N2`: the Activity in the series with BXPC-3 is reported as 25%; in [14], 100%; in the series with DU-145 [15], 30%; in [16], 85%; with MIA PaCa-2, 20%; with Capan-2 it was 45%. The Activity was 30% in series [19]; 0% in the series on PANC-1; 10% in the series on LNCaP [21]; 65% in the series on U-87 MG [22]; 30% in series [23]; 40% in the series with U-87 MG [25]. Besides, the Activity is reported as 96% with LNCaP [26], 90% in the series with HeLa and 90% in the series on DU-145 [27]. The solubility in [17] is 7 to 11 µM (≈ 2.05 to 3.22 µg/mL); in [24] it was 80 µM (≈ 23.4 µg/mL). Also, in [18], the mortality at 36 h, 10 µM turned out to be 100%. Further, in series [20], the mortality at 72 h, 20 µM is 0%.
